Experimental findings from patent publication US20050171161A1, “Method of treatment or prevention of obesity” (priority 2002, published 2005) are described below.

Series [1] deals with Calcium channel. Briefly: Calcium channel binding. From the text:
(§1) Ion channel assays have also been reported in the literature. The following are representative.

Series [2] addresses T1, recombinant human CB1 receptor (Homo sapiens, UniProt P21554).
T1 construct: expressed in transfected cells; host or cells: CHO cells (membranes)
Put plainly: Cannabinoid Receptor-1 (CB1) Binding Assay. How it is done:
Cannabinoid Receptor-1 (CB1) Binding Assay.
Binding buffer contains 50 mM Tris-HCl, pH7.4, 2.5 mM EDTA, 5 mM MgCl2, 0.5 mg/ml fatty acid free bovine serum albumin and protease inhibitors (Cat#P8340, from Sigma). To initiate the binding reaction, 5 μl of radioligand solution is added, the mixture is incubated with gentle shaking on a shaker for 1.5 hours at 30° C. The binding is terminated by using 96-well harvester and filtering through GF/C filter presoaked in 0.05% polyethylenimine. The bound radiolabel is quantitated using scintillation counter.

Series [3] has as its system Sodium channel site 2. Briefly: Sodium channel site 2 binding.
Excerpt: as §1

Series [4] addresses Potassium channel (Ikr) (Homo sapiens, UniProt Q12809). Put plainly: Potassium channel (Ikr) binding.
Excerpt: as §1

Series [5] addresses T2, recombinant human CB2 receptor (Homo sapiens, UniProt P34972).
T2 construct: expressed in transfected cells; host or cells: CHO cells (membranes)
Briefly: CB2 Receptor Binding Assay. How it is done: CB2 Receptor Binding Assay
The binding assay for CB2 receptor is conducted similarly, with recombinant human CB2 receptor expressed in CHO cells.

The target of series [6] is T3, 11β-HSD1 enzyme (hHSD1) (Homo sapiens, UniProt P28845).
T3 construct: expressed in transfected cells; host or cells: CHO transfectants (microsomes)
T3 sequence (P28845 whole entry): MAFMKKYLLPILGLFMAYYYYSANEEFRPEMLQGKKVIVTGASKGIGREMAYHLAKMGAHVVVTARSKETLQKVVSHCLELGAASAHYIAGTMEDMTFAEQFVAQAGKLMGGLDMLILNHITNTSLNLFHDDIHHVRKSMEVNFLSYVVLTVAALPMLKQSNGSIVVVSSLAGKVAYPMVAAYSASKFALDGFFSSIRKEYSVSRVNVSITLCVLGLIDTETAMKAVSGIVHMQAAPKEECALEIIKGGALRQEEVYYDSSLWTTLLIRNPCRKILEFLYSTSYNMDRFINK
Put plainly: 11β-HSD1 inhibition, Scintillation Proximity Assay. The following applies: SPA, tritiated cortisone, NADPH. Type of series: biochemical. How it is done: 11β-HSD1 Inhibition Constants
(§2) In vitro enzymatic activity is assessed for test compounds via a Scintillation Proximity Assay (SPA). Tritiated-cortisone substrate, NADPH cofactor and titrated compound are incubated with 11β-HSD1 enzyme at 37° C. to allow conversion to cortisol to progress. Following this incubation, protein A coated SPA beads, pre-blended with anti-cortisol monoclonal antibody and a non-specific 11β-HSD inhibitor, are added to each well. The mixture is shaken at 15° C. and then read on a liquid scintillation counter suitable for 96 well plates.
(§3) Percent inhibition is calculated relative to a non-inhibited control well, and IC50 curves are generated.
(§4) This assay is similarly applied to 11β-HSD2. Tritiated cortisol and NAD are used as the substrate and cofactor, respectively. 40 μL of substrate (25 nM ^3H-Cortisone+1.25 mM NADPH in 50 mM HEPES Buffer, pH 7.4) are added to designated wells on a 96 well plate. Solid compound is dissolved in DMSO at 10 mM followed by a subsequent 50 fold dilution in DMSO. The diluted material is then titrated 4 fold, seven times. 1 μL of each titrated compound is then added in duplicate to the substrate. To start the reaction, 10 μL of 11β-HSD1 microsome from CHO transfectants is added to each well at the appropriate concentration to yield approximately 10% conversion of the starting material. For ultimate calculation of percent inhibition, a series of wells is added that represent the assay minimum and maximum: one set that contains substrate without compound or enzyme (background), and another set that contains substrate and enzyme without any compound (maximum signal). The plates are spun briefly at a low speed in a centrifuge to pool the reagents, sealed with an adhesive strip, mixed gently, and incubated at 37° C. for 2 hours. After incubation, 45 μL of SPA beads, pre-suspended with anti-cortisol monoclonal antibody and non-specific 11β-HSD inhibitor, are added to each well. The plates are resealed and shaken gently for greater than 1.5 hours at 15° C. Data is collected on a plate based liquid scintillation counter such as a Topcount. To control for inhibition of anti-cortisol antibody/cortisol binding, substrate spiked with 1.25 nM [3]H cortisol is added to designated single wells. 1 μL of 200 μM compound is added to each of these wells, along with 10 μL of buffer instead of enzyme. Any calculated inhibition is due to compound interfering with the cortisol binding to the antibody on the SPA beads.
For orientation: In a scintillation proximity assay essentially only radioactivity close to the scintillant gives light.

Series [7] has as its target T4, 11β-HSD2 (hHSD2) (Homo sapiens, UniProt P80365).
T4 sequence (P80365 1-405): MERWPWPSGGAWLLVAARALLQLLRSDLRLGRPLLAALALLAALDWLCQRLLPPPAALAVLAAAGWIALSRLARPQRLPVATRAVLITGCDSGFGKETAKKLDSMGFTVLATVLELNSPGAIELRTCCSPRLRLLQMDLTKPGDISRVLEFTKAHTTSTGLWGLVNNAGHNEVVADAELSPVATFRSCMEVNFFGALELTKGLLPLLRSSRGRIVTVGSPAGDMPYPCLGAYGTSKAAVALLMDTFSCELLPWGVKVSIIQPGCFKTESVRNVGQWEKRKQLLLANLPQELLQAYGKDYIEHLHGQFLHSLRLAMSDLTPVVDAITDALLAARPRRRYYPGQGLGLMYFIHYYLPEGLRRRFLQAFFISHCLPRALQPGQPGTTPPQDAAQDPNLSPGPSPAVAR
Briefly: 11β-HSD2 inhibition, Scintillation Proximity Assay. Type of series: biochemical. The following applies: SPA, tritiated cortisol, NAD. How it is done:
as §2, §3, §4

Where [8] appears, read: CHO cell membranes, [3H]CP-55940 0.6 nM, read-out: hCB1 IC50.

Counter-ions that a name gives are not always drawn. Like-named read-outs stand apart in the source and are kept apart here.

T1 sequence (P21554 whole entry): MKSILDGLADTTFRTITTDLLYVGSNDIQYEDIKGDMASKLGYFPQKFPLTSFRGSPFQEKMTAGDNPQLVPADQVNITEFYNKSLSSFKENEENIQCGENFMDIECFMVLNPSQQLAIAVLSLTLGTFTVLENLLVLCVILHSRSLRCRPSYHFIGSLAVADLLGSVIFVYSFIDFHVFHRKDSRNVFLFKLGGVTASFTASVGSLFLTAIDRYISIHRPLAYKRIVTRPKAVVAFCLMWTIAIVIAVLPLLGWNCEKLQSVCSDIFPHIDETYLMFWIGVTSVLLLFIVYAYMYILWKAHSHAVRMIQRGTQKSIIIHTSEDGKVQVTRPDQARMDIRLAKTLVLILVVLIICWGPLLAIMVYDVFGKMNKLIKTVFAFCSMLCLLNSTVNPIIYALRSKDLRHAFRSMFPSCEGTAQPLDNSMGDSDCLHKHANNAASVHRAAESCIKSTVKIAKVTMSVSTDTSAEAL
T2 sequence (P34972 whole entry): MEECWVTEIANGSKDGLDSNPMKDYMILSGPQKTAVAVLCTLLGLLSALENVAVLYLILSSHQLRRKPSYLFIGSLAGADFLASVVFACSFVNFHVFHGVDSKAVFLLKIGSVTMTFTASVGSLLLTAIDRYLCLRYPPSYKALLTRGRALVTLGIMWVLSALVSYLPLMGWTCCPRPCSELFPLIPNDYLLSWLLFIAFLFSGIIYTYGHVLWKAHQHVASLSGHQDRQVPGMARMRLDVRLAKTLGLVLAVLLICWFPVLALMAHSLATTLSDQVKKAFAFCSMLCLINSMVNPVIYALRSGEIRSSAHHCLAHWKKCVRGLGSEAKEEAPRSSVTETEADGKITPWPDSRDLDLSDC
Sequence of Potassium channel (Ikr) (Q12809 whole entry): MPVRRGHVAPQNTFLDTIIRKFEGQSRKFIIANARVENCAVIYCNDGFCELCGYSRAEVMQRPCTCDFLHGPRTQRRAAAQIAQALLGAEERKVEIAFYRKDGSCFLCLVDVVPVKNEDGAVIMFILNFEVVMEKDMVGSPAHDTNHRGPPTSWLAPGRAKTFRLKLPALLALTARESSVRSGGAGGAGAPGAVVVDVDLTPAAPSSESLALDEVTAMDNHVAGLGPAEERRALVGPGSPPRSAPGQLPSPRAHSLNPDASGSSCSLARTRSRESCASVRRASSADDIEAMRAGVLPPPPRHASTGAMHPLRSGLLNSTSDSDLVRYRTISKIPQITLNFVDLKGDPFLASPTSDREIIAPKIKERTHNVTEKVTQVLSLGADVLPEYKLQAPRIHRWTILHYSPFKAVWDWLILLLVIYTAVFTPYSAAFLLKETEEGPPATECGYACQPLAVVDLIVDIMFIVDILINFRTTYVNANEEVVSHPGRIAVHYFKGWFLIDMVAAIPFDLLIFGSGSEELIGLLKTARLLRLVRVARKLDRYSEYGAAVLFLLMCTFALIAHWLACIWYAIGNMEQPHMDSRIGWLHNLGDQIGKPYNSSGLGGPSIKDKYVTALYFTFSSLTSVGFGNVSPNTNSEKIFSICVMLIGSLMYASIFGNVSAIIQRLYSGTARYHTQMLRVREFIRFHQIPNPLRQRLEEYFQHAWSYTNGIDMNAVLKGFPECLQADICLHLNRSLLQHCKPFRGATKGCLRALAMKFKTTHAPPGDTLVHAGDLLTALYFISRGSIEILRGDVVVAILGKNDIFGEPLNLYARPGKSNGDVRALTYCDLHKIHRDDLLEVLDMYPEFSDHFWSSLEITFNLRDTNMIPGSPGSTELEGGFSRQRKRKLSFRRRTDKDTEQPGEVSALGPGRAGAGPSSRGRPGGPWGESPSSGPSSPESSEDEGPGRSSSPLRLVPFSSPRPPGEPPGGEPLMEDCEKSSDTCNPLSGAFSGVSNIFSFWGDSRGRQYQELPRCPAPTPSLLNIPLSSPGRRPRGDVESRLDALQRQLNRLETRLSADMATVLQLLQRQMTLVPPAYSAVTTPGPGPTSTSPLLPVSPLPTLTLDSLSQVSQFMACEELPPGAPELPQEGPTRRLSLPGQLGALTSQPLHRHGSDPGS

For orientation: IC50 means the midpoint of a concentration-inhibition curve. With `Cn1c(C(=O)NN2CCCCC2)nc(-c2ccc(Cl)cc2Cl)c1-c1ccc(Cl)cc1` [Compound 2, N-(Piperidin-1-yl)-4-(2,4-dichlorophenyl)-5-(4-chlorophenyl)-1-methylimidazole-2-carboxamide], in series [1], the Ion Channel Values Ca came to 1200 nM. The half-inhibitory concentration (IC50) in series [2] (setting [8]) is less than 10 nM; in series [5] (CHO cells, read-out: hCB2 IC50), 100 to 1000 nM. The molecule further gave an Ion Channel Values Na in series [3] of 6 µM. This molecule displayed an Ion Channel Values K in series [4] of 1.3 µM.
With `Cn1c(C(=O)NC2CCCCC2)nc(-c2ccc(Cl)cc2Cl)c1-c1ccc(Cl)cc1` [Compound 5, N-(Cyclohexyl)-4-(2,4-dichlorophenyl)-5-(4-chlorophenyl)-1-methylimidazole-2-carboxamide], in series [1], the Ion Channel Values Ca came out at 4600 nM. Besides, the IC50 is less than 10 nM in series [2] and 100 to 1000 nM in series [5]. Besides, the Ion Channel Values Na in series [3] came out at 4 µM. Besides, the Ion Channel Values K in series [4] was 5.6 µM.
With `Cn1c(C(=O)Nc2ccccc2)nc(-c2ccc(Cl)cc2Cl)c1-c1ccc(Cl)cc1` [Compound 6, N-(Phenyl)-4-(2,4-dichlorophenyl)-5-(4-chlorophenyl)-1-methylimidazole-2-carboxamide], the IC50 fell in the range of 10 to 100 nM in series [2] (setting [8]) and 100 to 1000 nM in series [5] (CHO cells, read-out: hCB2 IC50).
Take `COc1cc(-c2nnc(C34CC5CC(CC(C5)C3)C4)n2C)cc(OC)c1OC` [Compound 9, 3-(1-adamantyl)-5-(3,4,5-trimethoxyphenyl)-4-methyl-4H-1,2,4-triazole]: the IC50 in series [6] and in series [7] was less than 10 nM each time.
Regarding `CC12CC3(C)CC(C)(C1)CC(Cc1nnc4n1CCCCC4)(C2)C3` [Compound 7, 3-[(3,5,7-trimethyl-1-adamantyl)methyl]-6,7,8,9-tetrahydro-5H-[1,2,4]triazolo[4,3-a]azepine Trifluoroacetate Salt], the results for the IC50 in series [6] and in series [7] were 10 to 100 nM and greater than 1000 nM, respectively.
`Cc1ccc(-c2nc(C(=O)NN3CCCCC3)n(C)c2-c2ccc(C)cc2)cc1` [Compound 3, N-(Piperidin-1-yl)-4,5-di-(4-methylphenyl)-1-methylimidazole-2-carboxamide]: the 50% inhibitory concentration (IC50) in series [5] (CHO cells, read-out: hCB2 IC50) is greater than 1000 nM.
Consider `C1CCCCc2nnc(C34CC5CC(CC(C5)C3)C4)n2CCCC1` [Compound 10, 3-adamantanyl-4,5,6,7,8,9,10,11,12,3a-decahydro-1,2,4-triazolo[4,3-a][11]annulene], for which the results for the IC50 in series [6] and in series [7] were 100 to 1000 nM and greater than 1000 nM, respectively.
For `Cc1ccc(-c2nc(C(=O)NC3CCCCC3)n(C)c2-c2ccc(C)cc2)cc1` [Compound 4, N-Cyclohexyl-4,5-di-(4-methylphenyl)-1-methylimidazole-2-carboxamide], the IC50 in series [2] was 100 to 1000 nM; in series [5] (CHO cells, read-out: hCB2 IC50) it was greater than 1000 nM.
With `CCSc1nnc(C23CC4CC(CC(C4)C2)C3)n1CC` [Compound 8, 3-(1-adamantyl)-4-ethyl-5-(ethylthio)-4H-1,2,4-triazole], the IC50 in series [6] was 10 to 100 nM; in series [7], greater than 1000 nM.
